Assay results: paper PMC11331178 (Journal of Advanced Research, 2023)
pKd: −log10 of the molar value.

Target: T1, TFEB (Homo sapiens, UniProt P19484)
T1 sequence (P19484 1-476 limits assumed): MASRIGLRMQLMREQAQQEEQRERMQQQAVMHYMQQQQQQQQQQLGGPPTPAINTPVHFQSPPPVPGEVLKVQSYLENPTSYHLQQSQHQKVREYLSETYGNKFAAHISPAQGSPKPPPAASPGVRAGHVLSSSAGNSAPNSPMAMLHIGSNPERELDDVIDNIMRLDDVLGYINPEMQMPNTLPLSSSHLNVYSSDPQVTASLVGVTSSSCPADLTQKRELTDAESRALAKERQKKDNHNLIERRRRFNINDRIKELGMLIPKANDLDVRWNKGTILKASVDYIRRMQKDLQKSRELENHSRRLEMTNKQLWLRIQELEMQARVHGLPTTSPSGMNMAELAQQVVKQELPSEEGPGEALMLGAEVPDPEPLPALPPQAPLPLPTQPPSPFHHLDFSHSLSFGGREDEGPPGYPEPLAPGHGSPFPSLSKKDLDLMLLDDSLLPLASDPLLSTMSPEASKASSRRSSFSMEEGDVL
Assay: SPR, Biacore S200, CM5 chip
Type: binding

C=C[C@]1(C)CC[C@@H](C(=C)C)C[C@H]1C(=C)C [β-ELE]
pKd: 4.08
